Laboratory results from US20140088144A1, “INHIBITING MICROBIAL INFECTIONS” (THE UNIVERSITY OF KANSAS, priority 2012, published 2014).

Legend:
MBP-Rns = target: T1, MBP-Rns (Escherichia coli, UniProt P16114); test: EMSA in vitro DNA binding by MBP-Rns; assay type: biochemical, Enterotoxigenic E. coli
T1 construct: made in house
Source text: FIGS. 9A-9B show inhibition of MBP-Rns and MBP-VirF by Compound 1. Quantification of EMSA of MBP-Rns (FIG. 9A) or example EMSA of MBP-VirF (FIG. 9B) DNA binding with the indicated inhibitor concentrations [micromolar]. F is Free DNA.
The compounds of the invention can be used for inhibition of virulence in vivo and in vitro activation by Rns and VirF.

icsB = test: Shigella gene expression qRT-PCR, icsB; assay type: cell-based, S. flexneri; conditions: for Average ΔΔCt / Ct / RQ (2^−ΔΔCt) / ΔΔCt^1 (normalized to gapA) / ΔΔCt^2 (normalized to rrsA): icsB, example data
Protocol: Real-time quantitative reverse transcription PCR (qRT-PCR) was performed to test the effects of SE-1 on the expression of the VirF regulated genes virB, icsA, icsB and ipaB. The gapA and rrsA transcripts were used as internal controls. These are constitutively expressed Shigella genes commonly used to normalize mRNA levels. S. flexneri strain SME4331, which carries a null mutation in ipgD (ipgD), was grown at 30° C. overnight in TSB with ampicillin, diluted into the same medium to an OD600 of ˜0.1, and 1 ml aliquots further grown at 30° C. (DMSO only) or at 37° C. (SE-1 at 20 or 40 μM, or DMSO only, all 0.3% DMSO). Cells were grown to an OD600 of 1.0 (˜2.5 h) and RNA was isolated using an RNeasy MiniElute Cleanup Kit (Qiagen, Germantown, Md.), with DNA contamination eliminated using a Turbo DNase Kit (Ambion, Austin, Tex.). Complementary DNA (cDNA) was synthesized by random priming using a cDNA Reverse Transcription Kit (Applied Biosystems, Foster City, Calif.). Primers were tested for PCR specificity using genomic DNA template to ensure a single amplicon of the expected size for each primer pair, and validated using 5-fold dilutions of cDNA (2000 to 0.0256 ng) to ensure a linear plot of cycle threshold (Ct) versus cDNA concentration. Validated primer sets were used to test mRNA profiles in reactions that contained 10 ng of cDNA, 10 μl of SYBR green master mix (Applied Biosystems), specific primers (0.5 μM each) and water to a final volume of 20 μl, using a Step One Plus Real-Time PCR System (Applied Biosystems). The data was analyzed using the 2^−ΔΔCt method, and also by Applied Biosystems real-time analysis software. […] In brief, ΔΔCt values [ΔΔCt=(Ct,Target−Ct,Internal Control)SE-1−(Ct,Target−Ct,Internal Control)no SE-1] were separately obtained for each sample relative to two internal controls, gapA and rrsA. The ΔΔCt values relative to the two internal controls for each sample were averaged and then used to calculate the relative expression levels (2^−ΔΔCt). As a control, we also normalized each internal control to the other internal control. Control reactions used templates generated without reverse transcriptase to ensure low genomic DNA contamination. To ensure that products were not likely to be due to primer dimer artifacts, additional control samples were performed in which reaction mixtures contained primers alone (no template).

T1 sequence (P16114 whole entry): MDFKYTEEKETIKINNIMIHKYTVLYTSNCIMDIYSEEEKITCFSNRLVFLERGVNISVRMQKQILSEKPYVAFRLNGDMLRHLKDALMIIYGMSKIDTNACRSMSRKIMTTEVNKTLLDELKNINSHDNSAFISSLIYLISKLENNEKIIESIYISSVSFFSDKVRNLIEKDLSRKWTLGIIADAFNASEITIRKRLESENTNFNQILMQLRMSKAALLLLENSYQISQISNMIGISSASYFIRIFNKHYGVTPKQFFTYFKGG

SMILES: CCCCN1C=C(c2ccc3ccccc3n2)C(C[N+](=O)[O-])c2ccccc21 (stereo not drawn) [Compound 1, 1-butyl-4-(nitromethyl)-3-quinolin-2-yl-4H-quinoline]
- inhibition of in vitro DNA binding by purified Rns (MBP-Rns): similarly inhibits
- reduction of icsB expression (icsB; 40 μM SE-1, P<0.05): two-fold reduction
- Average ΔΔCt (icsB; SE-1 20 μM): −0.06
- Ct (icsB; SE-1 20 μM): 26.25
- RQ (2^−ΔΔCt) (icsB; SE-1 20 μM): 1.04
- ΔΔCt^1 (normalized to gapA) (icsB; SE-1 20 μM): −0.56
- ΔΔCt^2 (normalized to rrsA) (icsB; SE-1 20 μM): 0.44
- Average ΔΔCt (icsB; SE-1 40 μM): 1.14
- Ct (icsB; SE-1 40 μM): 27.04
- RQ (2^−ΔΔCt) (icsB; SE-1 40 μM): 0.45
- ΔΔCt^1 (normalized to gapA) (icsB; SE-1 40 μM): 0.80
- ΔΔCt^2 (normalized to rrsA) (icsB; SE-1 40 μM): 1.49
